How the values were obtained:
Assay in all cases: Viability curves to CDDP, resistant vs sensitive subtype
Assay type in all cases: cell-based
[1] = tested on: 41M/41MR ovarian cancer cell lines; settings: IC50 of resistant cell line/IC50 of sensitive cell line; 41MR vs 41M; p<0.001
Experimental: (§1) FIG. 1. Viability curves to CDDP and CBDCA. The curves show CDDP resistance of cells (A) H23R, (B) H460R, (C) A2780R and (D) 41MR; and to CBDCA of cells (E) H23R-CBDCA and (F) A2780R-CBDCA. The data was normalized with respect to the untreated control, which was established as 100%. IC50 is the concentration that induces the death of 50% of the cell population. The resistance index (IR) is calculated as IC50 of the resistant cell line/IC50 of the sensitive cell line. P<0.001 was considered a significant change in drug sensitivity (Student's t test).
(§2) Cell Culture Lung and ovarian cancer cell lines H23, H460, H1299, H727, A2780 and OVCAR3 were purchased from the ATCC (Manassas, Va.) or ECACC (Sigma-Aldrich, Spain). All of them were maintained in RPMI supplemented with 10% exosome-depleted FBS, except for OVCAR3 which was cultured in RPMI with 20% exosome-depleted FBS. FBS was depleted of bovine exosomes by ultracentrifugation at 100,000×g for 16 h at 4° C. The CDDP-resistant variants H23R, H460R, A2780R and OVCAR3R, and the carboplatin-resistant variants H23R-CBDCA and A2780R-CBDCA were established by exposing cells to increasing doses of each platinum-based drug as described. The CDDP sensitive and resistant ovarian cancer cell lines 41M and 41MR were provided by Dr. Kelland (UK) and maintained in DMEM supplemented with 10% exosome-depleted FBS.
(§3) To determine whether cisplatin-resistant cells transmit their resistance through exosomes we used matched CDDP-sensitive/resistant lung cancer and ovarian cell lines H23S/H23R, H460S/H460R, A2780S/A2780R and 41M/41MR and, that we established previously (Ibanez de Caceres, I. et al. IGFBP-3 hypermethylation-derived deficiency mediates cisplatin resistance in non-small-cell lung cancer. Oncogene 29, 1681-1690 (2010); Vera, O. et al. DNA Methylation of miR-7 is a Mechanism Involved in Platinum Response through MAFG Overexpression in Cancer Cells. Theranostics 7, 4118-4134 (2017)). […] We then isolated exosomes from resistant subtypes H23R, H460R, 41MR and A2780R and confirmed their proper size (around 100 nm) using electron microscopy and NanoSight analysis (FIGS. 2A and B) Once we have confirmed that our samples were successfully enriched in exosomes, we wanted to assess if exosomes from cisplatin-resistant cells could alter the drug response of sensitive cells. For that purpose, firstly, we examined whether exosomes isolated from CDDP resistant subtypes were taken up by sensitive parental cells, we labelled exosomes with PKH26 and exposed them to sensitive cells. The analysis using flow cytometry confirmed the uptake of resistant exosomes in more than 77% of sensitive cells H23S, 41M and A2780S compared with PBS control (FIG. 3).

[2] = tested on: A2780S/A2780R ovarian cancer cell lines; settings: IC50 of resistant cell line/IC50 of sensitive cell line, p<0.001
Experimental: as §1, §2, §3

[3] = tested on: H23S/H23R lung cancer cell lines; settings: IC50 of resistant cell line/IC50 of sensitive cell line, p<0.001
Experimental: as §1, §2, §3

[4] = tested on: H460S/H460R lung cancer cell lines; settings: IC50 of resistant cell line/IC50 of sensitive cell line, p<0.001
Experimental: as §1, §2, §3

N.N.[Cl][Pt][Cl] [cisplatin]
Resistant-Index (RI) [1]: 4.26 | Resistant-Index (RI) [2]: 2.11 | Resistant-Index (RI) [3]: 2.77 | Resistant-Index (RI) [4]: 2.49

Reference: patent US20220267857A1, “METHOD FOR DETERMINING THE RESPONSE TO TREATMENT OF A PATIENT AFFECTED BY NON-SMALL CELL LUNG CARCINOMA (NSCLC)” (FUNDACIÓN PARA LA INVESTIGACIÓN BIOMÉDIKCA DEL HOSPITAL …, priority 2019, published 2022)
